Reference: ChEMBL document CHEMBL5346943, “Discovery and Structural Optimization of Novel Quinolone Derivatives as Potent Irreversible Pan-Fibroblast Growth Factor Receptor Inhibitors for Treating Solid Tumors” (J Med Chem, 2023)

Experiments:
[1] = molecular target: T1, Fibroblast growth factor receptor 4 (Homo sapiens, UniProt P22455); assay: Inhibition of FGFR4 (unknown origin) at 100 nM incubated for 10 mins followed by substrate addition measured after 60 mins by ADP-Glo luminescence assay relative to control; conditions: time 70.0 min
Target sequence in this assay (P22455 22-802 limits assumed): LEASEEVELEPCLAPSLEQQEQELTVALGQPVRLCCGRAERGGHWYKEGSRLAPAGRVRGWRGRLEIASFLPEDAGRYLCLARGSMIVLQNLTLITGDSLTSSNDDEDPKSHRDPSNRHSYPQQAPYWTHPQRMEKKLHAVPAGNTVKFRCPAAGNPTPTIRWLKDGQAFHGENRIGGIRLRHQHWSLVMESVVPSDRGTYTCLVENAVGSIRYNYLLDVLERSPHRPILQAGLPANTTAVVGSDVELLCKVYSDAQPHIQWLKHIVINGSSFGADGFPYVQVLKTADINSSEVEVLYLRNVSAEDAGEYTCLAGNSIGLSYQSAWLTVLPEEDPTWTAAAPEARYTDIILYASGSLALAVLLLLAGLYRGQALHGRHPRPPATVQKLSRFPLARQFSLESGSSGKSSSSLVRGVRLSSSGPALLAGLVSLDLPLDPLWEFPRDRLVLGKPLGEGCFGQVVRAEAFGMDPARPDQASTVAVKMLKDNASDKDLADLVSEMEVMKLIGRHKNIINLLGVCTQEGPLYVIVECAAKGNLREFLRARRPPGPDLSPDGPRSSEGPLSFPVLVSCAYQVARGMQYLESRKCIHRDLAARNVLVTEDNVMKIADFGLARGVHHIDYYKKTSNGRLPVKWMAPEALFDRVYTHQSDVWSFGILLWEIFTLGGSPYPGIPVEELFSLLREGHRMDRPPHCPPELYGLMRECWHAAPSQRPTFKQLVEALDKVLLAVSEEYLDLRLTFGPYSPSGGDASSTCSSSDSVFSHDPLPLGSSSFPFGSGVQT

[2] = system: Huh-7; assay: Antiproliferative activity against human Huh-7 cells incubated for 72 hrs by Cell counting kit 8 method; assay type: functional, cell-based; conditions: Huh-7, 72 h
[3] = system: Hep 3B2; assay: Antiproliferative activity against human Hep3B cells incubated for 72 hrs by Cell counting kit 8 method; assay type: functional, cell-based
[4] = molecular target: T1, Fibroblast growth factor receptor 4; assay: Inhibition of FGFR4 (unknown origin) incubated for 10 mins followed by substrate addition measured after 60 mins by ADP-Glo luminescence assay
Target sequence in this assay (P22455 whole entry): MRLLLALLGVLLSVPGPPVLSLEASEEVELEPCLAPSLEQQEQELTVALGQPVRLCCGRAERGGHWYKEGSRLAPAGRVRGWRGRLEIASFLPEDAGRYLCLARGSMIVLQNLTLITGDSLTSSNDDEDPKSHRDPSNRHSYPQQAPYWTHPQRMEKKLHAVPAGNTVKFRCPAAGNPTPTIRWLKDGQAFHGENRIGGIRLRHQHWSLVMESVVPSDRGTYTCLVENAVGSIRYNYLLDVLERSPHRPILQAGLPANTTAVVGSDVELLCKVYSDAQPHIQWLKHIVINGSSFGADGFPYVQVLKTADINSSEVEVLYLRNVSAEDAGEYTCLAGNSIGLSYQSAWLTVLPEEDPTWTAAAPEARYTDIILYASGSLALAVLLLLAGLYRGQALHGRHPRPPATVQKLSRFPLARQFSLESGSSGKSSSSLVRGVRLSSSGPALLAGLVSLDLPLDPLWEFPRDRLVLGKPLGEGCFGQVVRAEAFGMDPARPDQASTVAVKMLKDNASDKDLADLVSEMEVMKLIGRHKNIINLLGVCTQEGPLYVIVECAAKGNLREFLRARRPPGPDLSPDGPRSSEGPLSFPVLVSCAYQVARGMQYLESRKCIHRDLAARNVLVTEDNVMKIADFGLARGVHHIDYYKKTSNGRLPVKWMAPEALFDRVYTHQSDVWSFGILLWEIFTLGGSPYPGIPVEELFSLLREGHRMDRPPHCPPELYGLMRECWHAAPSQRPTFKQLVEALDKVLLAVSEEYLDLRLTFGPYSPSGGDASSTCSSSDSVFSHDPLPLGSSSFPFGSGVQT

[5] = molecular target: Fibroblast growth factor receptor 2 (Homo sapiens, UniProt P21802); assay: Inhibition of FGFR2 (unknown origin) incubated for 10 mins followed by substrate addition measured after 60 mins by ADP-Glo luminescence assay
[6] = molecular target: Fibroblast growth factor receptor 1 (Homo sapiens, UniProt P11362); assay: Inhibition of FGFR1 (unknown origin) incubated for 10 mins followed by substrate addition measured after 60 mins by ADP-Glo luminescence assay
[7] = Microsomal stability in human liver microsomes assessed as half life preincubated for 10 mins followed by NADPH addition measured upto 60 mins by LC-MS/MS analysis; assay type: ADME, Microsome; conditions: time < 70 min
[8] = Microsomal stability in human liver microsomes assessed as intrinsic clearance preincubated for 10 mins followed by NADPH addition measured upto 60 mins by LC-MS/MS analysis; assay type: ADME, Microsome; conditions: time < 70 min, read-out: CLH
[9] = Permeability of the compound at 10 uM preincubated in acceptor compartment for 16 hrs followed by 16 hrs incubation in donor compartment by PAMPA based LC-MS/MS analysis; assay type: ADME; conditions: time 32 hrs, read-out: permeability
[10] = Ionization constant, pKa of the compound in PBS buffer at pH 1.42 to 12.33 by electrochemical method; assay type: physicochemical
[11] = molecular target: Fibroblast growth factor receptor 3 (Homo sapiens, UniProt P22607); assay: Inhibition of FGFR3 (unknown origin) incubated for 10 mins followed by substrate addition measured after 60 mins by ADP-Glo luminescence assay
[12] = Solubility of the compound in PBS buffer of pH7.4 at 10 mM measured after 2 hrs by LC-MS/MS analysis; assay type: physicochemical; conditions: pH 7.4
[13] = C0 in Sprague-Dawley rat measured at 2 mg/kg, iv for 0.083 to 24 hrs by LC-MS/MS analysis; assay type: ADME, organism-based; conditions: in vivo, time 0.083-24 hrs
[14] = Cmax in Sprague-Dawley rat measured at 2 mg/kg, iv for 0.083 to 24 hrs by LC-MS/MS analysis; assay type: ADME, organism-based; set-up: time upper 24 hrs, time lower 0.083 hrs, dose 2 mg/kg, route iv; conditions: in vivo
[15] = Half life in Sprague-Dawley rat measured at 2 mg/kg, iv for 0.083 to 24 hrs by LC-MS/MS analysis; assay type: ADME, organism-based; conditions: in vivo, time 0.083-24 hrs
[16] = Tmax in Sprague-Dawley rat measured at 2 mg/kg, iv for 0.083 to 24 hrs by LC-MS/MS analysis; assay type: ADME, organism-based; conditions: in vivo, time 0.083-24 hrs
[17] = AUC (0 to t) in Sprague-Dawley rat measured at 2 mg/kg, iv for 0.083 to 24 hrs by LC-MS/MS analysis; assay type: ADME, organism-based; set-up: dose 2 mg/kg, time upper 24 hrs, time lower 0.083 hrs, route iv; conditions: in vivo
[18] = AUC (0 to infinity) in Sprague-Dawley rat measured at 2 mg/kg, iv for 0.083 to 24 hrs by LC-MS/MS analysis; assay type: ADME, organism-based; set-up: time lower 0.083 hrs, dose 2 mg/kg, time upper 24 hrs, route iv; conditions: in vivo
[19] = MRT (0 to t) in Sprague-Dawley rat measured at 2 mg/kg, iv for 0.083 to 24 hrs by LC-MS/MS analysis; assay type: ADME, organism-based; conditions: in vivo, time 0.083-24 hrs
[20] = MRT (0 to infinity) in Sprague-Dawley rat measured at 2 mg/kg, iv for 0.083 to 24 hrs by LC-MS/MS analysis; assay type: ADME, organism-based; conditions: in vivo, time 0.083-24 hrs
[21] = Clearance in Sprague-Dawley rat measured at 2 mg/kg, iv for 0.083 to 24 hrs by LC-MS/MS analysis; assay type: ADME, organism-based; conditions: in vivo, time 0.083-24 hrs
[22] = Volume of distribution at steady state in Sprague-Dawley rat measured at 2 mg/kg, iv for 0.083 to 24 hrs by LC-MS/MS analysis; assay type: ADME, organism-based; conditions: in vivo, time 0.083-24 hrs, read-out: Vdss
[23] = Cmax in Sprague-Dawley rat measured at 10 mg/kg, po for 0.083 to 24 hrs by LC-MS/MS analysis; assay type: ADME, organism-based; set-up: time 0.083-24 hrs, dose 10 mg/kg, route po; conditions: in vivo
[24] = Half life in Sprague-Dawley rat measured at 10 mg/kg, po for 0.083 to 24 hrs by LC-MS/MS analysis; assay type: ADME, organism-based; conditions: in vivo, time 0.083-24 hrs
[25] = Tmax in Sprague-Dawley rat measured at 10 mg/kg, po for 0.083 to 24 hrs by LC-MS/MS analysis; assay type: ADME, organism-based; conditions: in vivo, time 0.083-24 hrs
[26] = AUC (0 to t) in Sprague-Dawley rat measured at 10 mg/kg, po for 0.083 to 24 hrs by LC-MS/MS analysis; assay type: ADME, organism-based; set-up: dose 10 mg/kg, time upper 24 hrs, time lower 0.083 hrs, route po; conditions: in vivo
[27] = AUC (0 to infinity) in Sprague-Dawley rat measured at 10 mg/kg, po for 0.083 to 24 hrs by LC-MS/MS analysis; assay type: ADME, organism-based; set-up: dose 10 mg/kg, time upper 24 hrs, time lower 0.083 hrs, route po; conditions: in vivo
[28] = MRT (0 to t) in Sprague-Dawley rat measured at 10 mg/kg, po for 0.083 to 24 hrs by LC-MS/MS analysis; assay type: ADME, organism-based; conditions: in vivo, time 0.083-24 hrs
[29] = MRT (0 to infinity) in Sprague-Dawley rat measured at 10 mg/kg, po for 0.083 to 24 hrs by LC-MS/MS analysis; assay type: ADME, organism-based; conditions: in vivo, time 0.083-24 hrs
[30] = Oral bioavailability in Sprague-Dawley rat measured at 10 mg/kg for 0.083 to 24 hrs by LC-MS/MS analysis; assay type: ADME, organism-based; conditions: in vivo, time 0.083-24 hrs

Sequence of Fibroblast growth factor receptor 1 (P11362 whole entry): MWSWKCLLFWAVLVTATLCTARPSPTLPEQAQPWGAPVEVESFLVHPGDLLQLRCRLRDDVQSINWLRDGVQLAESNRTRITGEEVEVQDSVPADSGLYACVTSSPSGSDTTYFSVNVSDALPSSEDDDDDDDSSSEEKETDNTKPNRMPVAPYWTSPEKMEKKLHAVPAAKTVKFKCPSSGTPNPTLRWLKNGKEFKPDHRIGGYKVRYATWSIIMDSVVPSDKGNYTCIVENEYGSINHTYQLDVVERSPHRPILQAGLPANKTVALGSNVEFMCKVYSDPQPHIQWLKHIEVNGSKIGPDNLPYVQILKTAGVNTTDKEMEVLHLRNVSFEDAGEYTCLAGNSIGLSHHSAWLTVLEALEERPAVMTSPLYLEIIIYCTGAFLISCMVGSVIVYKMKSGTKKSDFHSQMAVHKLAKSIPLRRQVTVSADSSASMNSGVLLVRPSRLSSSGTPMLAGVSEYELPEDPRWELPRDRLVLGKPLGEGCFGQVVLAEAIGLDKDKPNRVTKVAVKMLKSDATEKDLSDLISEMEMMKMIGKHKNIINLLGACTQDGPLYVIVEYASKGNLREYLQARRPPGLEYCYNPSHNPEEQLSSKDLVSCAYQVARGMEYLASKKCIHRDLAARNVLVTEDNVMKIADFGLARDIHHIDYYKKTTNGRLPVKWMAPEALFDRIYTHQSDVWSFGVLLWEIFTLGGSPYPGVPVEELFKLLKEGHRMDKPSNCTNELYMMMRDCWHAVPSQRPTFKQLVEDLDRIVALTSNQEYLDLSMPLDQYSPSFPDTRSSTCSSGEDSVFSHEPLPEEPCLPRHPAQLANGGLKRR
Sequence of Fibroblast growth factor receptor 2 (P21802 whole entry): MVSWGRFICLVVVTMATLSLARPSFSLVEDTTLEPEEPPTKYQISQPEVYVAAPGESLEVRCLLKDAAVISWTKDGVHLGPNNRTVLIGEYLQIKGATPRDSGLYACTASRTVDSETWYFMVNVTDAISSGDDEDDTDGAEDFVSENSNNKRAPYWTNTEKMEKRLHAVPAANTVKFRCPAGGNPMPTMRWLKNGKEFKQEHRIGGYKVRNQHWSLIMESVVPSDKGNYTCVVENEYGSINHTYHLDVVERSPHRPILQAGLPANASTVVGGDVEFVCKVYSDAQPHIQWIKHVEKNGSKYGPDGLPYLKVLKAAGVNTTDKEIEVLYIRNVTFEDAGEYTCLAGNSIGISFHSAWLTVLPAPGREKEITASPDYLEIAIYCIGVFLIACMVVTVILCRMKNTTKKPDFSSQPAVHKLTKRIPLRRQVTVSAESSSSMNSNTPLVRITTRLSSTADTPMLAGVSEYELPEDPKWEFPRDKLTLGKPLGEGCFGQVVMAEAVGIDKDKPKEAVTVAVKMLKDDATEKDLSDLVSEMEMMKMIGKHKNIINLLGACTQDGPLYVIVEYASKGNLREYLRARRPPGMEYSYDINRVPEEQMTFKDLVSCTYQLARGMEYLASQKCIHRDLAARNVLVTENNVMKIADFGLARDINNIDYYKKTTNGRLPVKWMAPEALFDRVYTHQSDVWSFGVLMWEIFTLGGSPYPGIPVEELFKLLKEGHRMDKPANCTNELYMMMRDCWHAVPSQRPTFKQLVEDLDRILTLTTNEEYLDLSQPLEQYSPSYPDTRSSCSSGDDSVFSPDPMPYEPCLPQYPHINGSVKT
Sequence of Fibroblast growth factor receptor 3 (P22607 whole entry): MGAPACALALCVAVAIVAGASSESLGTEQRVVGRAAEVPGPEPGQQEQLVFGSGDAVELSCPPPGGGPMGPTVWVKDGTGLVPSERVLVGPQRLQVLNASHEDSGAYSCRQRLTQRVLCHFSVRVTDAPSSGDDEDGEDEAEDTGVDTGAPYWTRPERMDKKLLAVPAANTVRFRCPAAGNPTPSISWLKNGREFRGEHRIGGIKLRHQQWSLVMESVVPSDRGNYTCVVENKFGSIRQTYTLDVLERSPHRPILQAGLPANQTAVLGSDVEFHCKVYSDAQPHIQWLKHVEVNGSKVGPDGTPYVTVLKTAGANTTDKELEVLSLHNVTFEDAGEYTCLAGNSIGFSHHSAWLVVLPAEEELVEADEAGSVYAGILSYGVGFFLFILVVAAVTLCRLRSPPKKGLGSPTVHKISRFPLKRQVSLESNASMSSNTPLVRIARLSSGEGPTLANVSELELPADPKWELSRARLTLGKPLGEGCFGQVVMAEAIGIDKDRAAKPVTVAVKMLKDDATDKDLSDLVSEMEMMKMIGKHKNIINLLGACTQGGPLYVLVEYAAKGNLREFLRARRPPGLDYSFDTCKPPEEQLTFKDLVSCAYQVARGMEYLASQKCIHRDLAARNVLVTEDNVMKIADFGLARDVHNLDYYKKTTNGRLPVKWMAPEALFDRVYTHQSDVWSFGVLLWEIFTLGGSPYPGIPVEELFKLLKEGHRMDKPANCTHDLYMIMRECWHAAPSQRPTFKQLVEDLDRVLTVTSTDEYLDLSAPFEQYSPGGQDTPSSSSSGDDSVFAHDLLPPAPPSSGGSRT

C=C(F)C(=O)N1CCC(c2cc3c(Oc4ccc(NC(=O)NC5CC5)c(Cl)c4)ccnc3cc2OC)CC1
inhibition [1]: 21.6% | IC50 [2]: > 10000 nM | IC50 [3]: > 10000 nM

COc1cc2nccc(Oc3ccc(NC(=O)NC4CC4)c(Cl)c3)c2cc1C1=CCN(C(=O)CCl)CC1
IC50 [4]: 294 nM | IC50 [2]: > 10000 nM | IC50 [3]: 1660 nM

COc1cc2nccc(Oc3ccc(NC(=O)NC4CC4)c(Cl)c3)c2cc1C1CCN(C(=O)/C=C/C(F)(F)F)CC1
IC50 [4]: 12.4 nM | IC50 [2]: 103 nM | IC50 [3]: > 10000 nM

C=CC(=O)N1CCC(c2cc3c(Oc4cc5cc(C)[nH]c5cc4F)ccnc3cc2OC)CC1
inhibition [1]: 20.6% | IC50 [2]: 216 nM | IC50 [3]: 313 nM

C=CC(=O)N1CCC(c2cc3c(Nc4ccc(OCc5ccccn5)c(Cl)c4)ccnc3cc2OC)CC1
inhibition [1]: 17.1% | IC50 [2]: > 10000 nM | IC50 [3]: 4020 nM

C=CC(=O)N1CCC(c2cc3c(Oc4ccc(NC(=O)NC5CC5)c(Cl)c4)ccnc3cc2OC(C)C)CC1
IC50 [4]: 17 nM | IC50 [2]: 37.8 nM | IC50 [3]: 63.6 nM

C=CC(=O)N1CCC(c2cc3c(Oc4ccc5c(C(=O)NC)cccc5c4)ccnc3cc2OC)CC1
inhibition [1]: 24% | IC50 [2]: 114 nM | IC50 [3]: 125 nM

C=CC(=O)N1CCC(c2cc3nccc(Oc4ccc(NC(=O)NC5CC5)c(Cl)c4)c3cc2OC)CC1
inhibition [1]: 25.9% | IC50 [2]: > 10000 nM | IC50 [3]: > 10000 nM

COc1cc2nccc(Oc3ccc(NC(=O)NC4CC4)c(Cl)c3)c2cc1C1CCN(C(=O)C(F)(F)F)CC1
inhibition [1]: 25.6% | IC50 [2]: 1410 nM | IC50 [3]: > 10000 nM

C=CC(=O)N1CCC(c2cc3c(Oc4ccc(NC(=O)NC5CC5)c(Cl)c4)ccnc3cc2OC)C(C)C1 (stereo unspecified)
IC50 [4]: 5.73 nM | IC50 [2]: 16.9 nM | IC50 [3]: 13.3 nM

C=CC(=O)N1CCC(c2cc3c(Oc4ccc(NC(=O)NC5CC5)c(Cl)c4)ccnc3cc2OCC(F)(F)F)CC1
IC50 [4]: 14.5 nM | IC50 [2]: 15.5 nM | IC50 [3]: 30.2 nM

COc1cc2nccc(Oc3ccc(NC(=O)NC4CC4)c(Cl)c3)c2cc1C(N)=O [LENVATINIB]
IC50 [5]: 11 nM | IC50 [6]: 66 nM | IC50 [2]: 851 nM | IC50 [3]: 696 nM | half-life [7]: 22.4 min | microsomal CLint [8]: 74.1 µL/min/mg | Papp at 16 h, 10 µM [9]: 9.27 ×10⁻⁶ cm/s | pKa [10]: 5.27

C=CC(=O)N1CCC(c2cc3c(Oc4ccc(NC(=O)NC5CC5)c(OCC)c4)ccnc3cc2OC)CC1
inhibition [1]: 10.7% | IC50 [2]: 356 nM | IC50 [3]: 509 nM

C=CC(=O)N1CCC(c2cc3c(Oc4ccc(NC(=O)NC5CC5)c(Cl)c4)ccnc3cc2OCC)CC1
IC50 [5]: 5.2 nM | IC50 [6]: 4.5 nM | IC50 [4]: 230 nM | IC50 [2]: 9.4 nM | IC50 [3]: 17.4 nM | IC50 [11]: 5.5 nM | solubility at 2 h, 10000 µM [12]: < 0.073 µM | Papp at 16 h, 10 µM [9]: 1.11 ×10⁻⁶ cm/s | pKa [10]: 5.28 | C0 [13]: 3090 ng/mL | Cmax [14]: 1700 ng/mL | half-life [15]: 14.4 min | Tmax [16]: 4.8 min | AUC(0-t) [17]: 505 ng·h/mL | AUC(0-inf) [18]: 506 ng·h/mL | MRT last [19]: 9.6 min | MRT [20]: 10.2 min | clearance [21]: 66 mL/min/kg | Vd [22]: 0.659 L/kg | Cmax [23]: 1680 ng/mL | half-life [24]: 78 min | Tmax [25]: 15 min | AUC(0-t) [26]: 1100 ng·h/mL | AUC(0-inf) [27]: 1120 ng·h/mL | MRT last [28]: 79.8 min | MRT [29]: 85.2 min | bioavailability [30]: 43.7%
